Experimental data from patent US6946480B2, “Glutaminyl based DPIV inhibitors” (priority 2002, dated 2005).

Columns and labels:
[1] = molecular target: T1, plasma DPIV activity (Rattus norvegicus, UniProt P14740); experiment: Plasma DPIV inhibiting activity after intravasal and oral administration to Wistar rats; format: in vivo; settings: 100 mg/kg b.w. vs. placebo, oral and intra-vasal administration
T1 construct: The assay mixture for determination of plasma DPIV activity consisted of 80 μl reagent and 20 μl plasma sample; from tissue; host or cells: plasma of male Wistar rats
T1 sequence (P14740 37-767 limits assumed): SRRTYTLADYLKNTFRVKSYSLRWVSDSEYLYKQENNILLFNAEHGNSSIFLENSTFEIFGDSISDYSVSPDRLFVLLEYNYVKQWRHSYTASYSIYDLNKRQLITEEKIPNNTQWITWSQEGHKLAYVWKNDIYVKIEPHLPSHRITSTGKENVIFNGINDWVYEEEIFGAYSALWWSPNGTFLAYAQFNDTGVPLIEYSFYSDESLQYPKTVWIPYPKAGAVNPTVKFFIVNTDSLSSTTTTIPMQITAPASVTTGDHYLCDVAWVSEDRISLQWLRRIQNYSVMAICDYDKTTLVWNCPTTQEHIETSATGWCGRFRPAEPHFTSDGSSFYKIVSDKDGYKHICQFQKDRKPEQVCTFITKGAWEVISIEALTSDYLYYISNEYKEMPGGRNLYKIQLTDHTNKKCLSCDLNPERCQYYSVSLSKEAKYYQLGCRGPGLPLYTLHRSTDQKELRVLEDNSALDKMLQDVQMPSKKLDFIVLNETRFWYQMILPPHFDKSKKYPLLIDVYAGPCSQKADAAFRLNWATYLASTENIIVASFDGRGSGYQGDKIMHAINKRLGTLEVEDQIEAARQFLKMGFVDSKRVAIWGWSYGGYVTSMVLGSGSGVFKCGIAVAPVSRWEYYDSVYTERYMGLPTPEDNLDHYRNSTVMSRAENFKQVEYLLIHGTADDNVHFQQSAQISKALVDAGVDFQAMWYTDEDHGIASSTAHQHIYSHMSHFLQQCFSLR
Procedure: Male Wistar rats (Shoe: Wist(Sho)) with a body weight ranging between 250 and 350 g were purchased from Tierzucht Schönwalde (Schönwalde, Germany).
Animals were single-caged under conventional conditions with controlled temperature (22±2° C.) on a 12/12 hours light/dark cycle (light on at 06:00 AM). Standard pelleted chow (ssniff® Soest, Germany) and tap water acidified with HCl were allowed ad libitum.
After ≧one week of adaptation at the housing conditions, catheters were implanted into the carotid artery of Wistar rats under general anaesthesia (i.p. injection of 0.25 ml/kg b.w. Rompun® [2%], BayerVital, Germany and 0.5 ml/kg b.w. Ketamin 10, Atarost GmbH & Co., Twistringen, Germany). The animals were allowed to recover for one week. The catheters were flushed with heparin-saline (100 IU/ml) three times per week. In case of catheter dysfunction, a second catheter was inserted into the contra-lateral carotid artery of the respective rat. After one week of recovery from surgery, this animal was reintegrated into the study. In case of dysfunction of the second catheter, the animal was withdrawn from the study. […]
Statistical evaluations and graphics were performed with PRISM® 3.02 (GraphPad Software, Inc.). All parameters were analysed in a descriptive manner including mean and SD.

[2] = molecular target: T2, Prolidase from porcine kidney (Sus scrofa, UniProt A0A5G2QQV1); experiment: Cross reacting enzymes - prolidase; format: biochemical
T2 sequence (A0A5G2QQV1 1-463): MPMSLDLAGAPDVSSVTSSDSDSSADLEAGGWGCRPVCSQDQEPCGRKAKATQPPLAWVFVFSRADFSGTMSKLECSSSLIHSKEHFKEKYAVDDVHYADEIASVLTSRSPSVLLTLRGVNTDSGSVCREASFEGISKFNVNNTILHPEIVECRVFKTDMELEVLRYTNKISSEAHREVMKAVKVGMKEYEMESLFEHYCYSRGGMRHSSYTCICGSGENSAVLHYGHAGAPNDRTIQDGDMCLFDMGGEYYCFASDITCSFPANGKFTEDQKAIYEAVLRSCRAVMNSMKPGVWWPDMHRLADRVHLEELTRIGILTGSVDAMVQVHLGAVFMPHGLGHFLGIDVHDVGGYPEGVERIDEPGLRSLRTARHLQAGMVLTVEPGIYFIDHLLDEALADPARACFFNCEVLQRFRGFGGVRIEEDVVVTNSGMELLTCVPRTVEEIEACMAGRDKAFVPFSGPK
Procedure: Glutaminyl pyrrolidine or glutaminyl thiazolidine were tested for their cross reacting potency against dipeptidyl peptidase I, prolyl oligopeptidase and prolidase.
Prolidase (EC 3.4.13.9) was first described by Bergmann & Fruton (Bergmann, M. & Fruton, J S, 1937, J. Biol. Chem. 189-202). Prolidase releases the N-terminal amino acid from Xaa-Pro dipeptides and has a pH optimum between 6 and 9.
Prolidase from porcine kidney (ICN Biomedicals, Eschwege, Germany). was solved (1 mg/ml) in assay buffer (20 mM NH4(CH3COO)2, 3 mM MnCl2, pH 7.6). In order to get a fully active enzyme the solution was incubated for 60 min at room temperature.
450 μl glutaminyl pyrrolidine or glutaminyl thiazolidine in an concentration range of 5*10^−3 M-5*10^−7 M were admixed with 500 μl buffer solution (20 mM NH4(CH3COO)2, pH 7.6) and 250 μl lle-Pro-OH (0.5 mM in the assay mixture). The assay mixture was pre-incubated at 30° C. for 5 min After pre-incubation, 75 μl Prolidase (1:10 diluted in assay buffer) were added and measurement was performed at 30° C. and λ=220 nm for 20 min using a UV/Vis photometer, UV1 (Thermo Spectronic, Cambridge, UK).
The IC50-values were calculated using Graphit 4.0.15 (Erithacus Software, Ltd., UK).

## NC(=O)CC[C@H](N)C(=O)N1CCCC1 [glutaminyl pyrrolidine]
[1]
  inhibition of plasma DPIV activity in vivo: inhibited plasma DPIV activity
[2]
  efficacy against prolidase compared to DPIV: marked lower efficacy
